Test results from patent US20150157739A1, “Imidazo[2,1]thiazol-3-one derivatives” (Hoffmann-La Roche Inc., priority 2012, published 2015).

Columns and labels:
[1] = biological target: T1, aggregated recombinant human-microtubule associated protein Tau (Homo sapiens, UniProt P10636); assay: Thiazin-red R displacement fluorescence assay on aggregated Tau; format: binding; settings: displacement of Thiazin-red R from aggregated Tau; compound 0.3 nM to 10000 nM; 30 min room temperature; Ex 531 nm/Em 595 nm
T1 construct: Recombinant human-microtubule associated protein Tau purified from E. coli is aggregated at a concentration of 5 μM with Arachidonic Acid (100 μM) in Tris 10 mM pH8, 24 h at 37° C
T1 sequence (P10636 whole entry): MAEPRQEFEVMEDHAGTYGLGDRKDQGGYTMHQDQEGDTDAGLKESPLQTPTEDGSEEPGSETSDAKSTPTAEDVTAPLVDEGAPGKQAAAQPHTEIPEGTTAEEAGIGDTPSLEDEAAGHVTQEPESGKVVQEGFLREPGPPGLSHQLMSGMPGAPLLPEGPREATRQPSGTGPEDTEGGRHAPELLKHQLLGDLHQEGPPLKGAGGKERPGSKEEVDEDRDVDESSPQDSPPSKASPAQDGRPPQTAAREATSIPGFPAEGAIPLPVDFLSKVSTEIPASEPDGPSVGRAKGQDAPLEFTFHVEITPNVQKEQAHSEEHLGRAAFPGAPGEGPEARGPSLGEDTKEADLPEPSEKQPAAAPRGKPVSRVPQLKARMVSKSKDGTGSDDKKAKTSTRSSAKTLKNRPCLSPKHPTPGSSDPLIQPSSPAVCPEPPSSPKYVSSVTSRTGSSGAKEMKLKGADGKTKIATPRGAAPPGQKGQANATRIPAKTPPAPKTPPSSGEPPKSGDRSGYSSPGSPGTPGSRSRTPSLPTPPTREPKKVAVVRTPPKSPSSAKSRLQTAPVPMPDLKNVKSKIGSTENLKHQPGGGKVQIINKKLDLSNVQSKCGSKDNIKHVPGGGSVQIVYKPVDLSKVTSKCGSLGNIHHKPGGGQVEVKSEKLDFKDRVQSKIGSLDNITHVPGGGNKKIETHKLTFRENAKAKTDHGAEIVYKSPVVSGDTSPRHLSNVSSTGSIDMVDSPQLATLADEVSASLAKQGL

[2] = biological target: T2, aggregated synthetic Aβ40 (Homo sapiens, UniProt P05067); assay: Thiazin-red R displacement fluorescence assay on aggregated A-beta; format: binding; settings: displacement of Thiazin-red R from aggregated Aβ40; compound 0.3 nM to 10000 nM; 30 min room temperature; Ex 531 nm/Em 595 nm
T2 construct: Synthetic Aβ40 is aggregated at a concentration of 50 μM
T2 sequence (P05067 672-711 limits assumed): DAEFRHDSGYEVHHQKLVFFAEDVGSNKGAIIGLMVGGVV

IC50 [1] | IC50 [2] | Structure (SMILES)
0.0008 µM | 1.73 µM | COc1cc(/C=c2\sc3nc(-c4cc(Br)cc(C#N)c4)cn3c2=O)cc(Cl)c1O [Example 85, 3-Bromo-5-{2-[1-(3-chloro-4-hydroxy-5-methoxy-phenyl)-meth-(Z)-ylidene]-3-oxo-2,3-dihydro-imidazo[2,1-b]thiazol-6-yl}-benzonitrile]
0.001 µM | 1.24 µM | COc1cc(/C=c2\sc3nc(-c4cccc(C(N)=O)c4)cn3c2=O)cc(Cl)c1O [Example 86, 3-{2-[1-(3-Chloro-4-hydroxy-5-methoxy-phenyl)-meth-(Z)-ylidene]-3-oxo-2,3-dihydro-imidazo[2,1-b]thiazol-6-yl}-benzamide]
0.0003 µM | 0.006 µM | COc1cc(/C=c2\sc3nc(-c4ccc(C#N)cc4)cn3c2=O)cc(Cl)c1O [Example 87, 4-{2-[1-(3-Chloro-4-hydroxy-5-methoxy-phenyl)-meth-(Z)-ylidene]-3-oxo-2,3-dihydro-imidazo[2,1-b]thiazol-6-yl}-benzonitrile]
0.0006 µM | 0.014 µM | COc1cc(/C=c2\sc3nc(-c4ccc(OC(F)F)cc4)cn3c2=O)cc(Cl)c1O [Example 88, 2-[1-(3-Chloro-4-hydroxy-5-methoxy-phenyl)-meth-(Z)-ylidene]-6-(4-(difluoromethoxy)phenyl)-imidazo[2,1-b]thiazol-3-one]
0.024 µM | 0.356 µM | COc1cc(/C=c2\sc3nc(-c4cccc(N5CCOCC5)c4)cn3c2=O)cc(Cl)c1O [Example 89, 2-[1-(3-Chloro-4-hydroxy-5-methoxy-phenyl)-meth-(Z)-ylidene]-6-(3-morpholinophenyl)-imidazo[2,1-b]thiazol-3-one]
0.037 µM | 0.016 µM | COc1cc(/C=c2\sc3nc(-c4ccc(N5CCCC5)cc4)cn3c2=O)cc(Cl)c1O [Example 90, 2-[1-(3-Chloro-4-hydroxy-5-methoxy-phenyl)-meth-(Z)-ylidene]-6-(4-(pyrrolidin-1-yl)phenyl)-imidazo[2,1-b]thiazol-3-one]
0.02 µM | 0.184 µM | CCN(CC)c1ccc(-c2cn3c(=O)/c(=C/c4cc(Cl)c(O)c(OC)c4)sc3n2)cc1 [Example 91, 2-[1-(3-Chloro-4-hydroxy-5-methoxy-phenyl)-meth-(Z)-ylidene]-6-(4-(diethylamino)phenyl)-imidazo[2,1-b]thiazol-3-one]
0.039 µM | 0.482 µM | COc1cc(/C=c2\sc3nc(-c4ccc(N5CCOCC5)cc4)cn3c2=O)cc(Cl)c1O [Example 92, 2-[1-(3-Chloro-4-hydroxy-5-methoxy-phenyl)-meth-(Z)-ylidene]-6-(4-morpholinophenyl)-imidazo[2,1-b]thiazol-3-one]
0.03 µM | 0.029 µM | COc1cc(/C=c2\sc3nc(-c4ccc(N(C)C)cc4)cn3c2=O)cc(Cl)c1O [Example 93, 2-[1-(3-Chloro-4-hydroxy-5-methoxy-phenyl)-meth-(Z)-ylidene]-6-(4-(dimethylamino)phenyl)-imidazo[2,1-b]thiazol-3-one]
0.042 µM | 3.89 µM | COc1cc(/C=c2\sc3nc(-c4cccc(N5CCCC5=O)c4)cn3c2=O)cc(Cl)c1O [Example 94, 2-[1-(3-Chloro-4-hydroxy-5-methoxy-phenyl)-meth-(Z)-ylidene]-6-[3-(2-oxo-pyrrolidin-1-yl)-phenyl]-imidazo[2,1-b]thiazol-3-one]
0.028 µM | 2.15 µM | COc1cc(/C=c2\sc3nc(-c4cccc(OCCOCCOCCF)c4)cn3c2=O)cc(Cl)c1O [Example 95, 2-[1-(3-Chloro-4-hydroxy-5-methoxy-phenyl)-meth-(Z)-ylidene]-6-(3-{2-[2-(2-fluoro-ethoxy)-ethoxy]-ethoxy}-phenyl)-imidazo[2,1-b]thiazol-3-one]
0.021 µM | 1.85 µM | COc1cc(/C=c2\sc3nc(-c4ccc(C(=O)O)cc4)cn3c2=O)cc(Cl)c1O [Example 98, 4-{2-[1-(3-Chloro-4-hydroxy-5-methoxy-phenyl)-meth-(Z)-ylidene]-3-oxo-2,3-dihydro-imidazo[2,1-b]thiazol-6-yl}-benzoic acid]
0.014 µM | 0.325 µM | COc1ccc(-c2cn3c(=O)/c(=C/c4cc(Cl)c(O)c(OC)c4)sc3n2)cc1OC [Example 99, 2-[1-(3-Chloro-4-hydroxy-5-methoxy-phenyl)-meth-(Z)-ylidene]-6-(3,4-dimethoxy-phenyl)-imidazo[2,1-b]thiazol-3-one]
0.009 µM | 1.06 µM | COc1cc(/C=c2\sc3nc(-c4ccc5c(c4)OCCO5)cn3c2=O)cc(Cl)c1O [Example 100, 2-[1-(3-Chloro-4-hydroxy-5-methoxy-phenyl)-meth-(Z)-ylidene]-6-(2,3-dihydro-benzo[1,4]dioxin-6-yl)-imidazo[2,1-b]thiazol-3-one]
0.002 µM | 0.792 µM | COc1cc(/C=c2\sc3nc(-c4ccc(C(N)=O)cc4)cn3c2=O)cc(Cl)c1O [Example 101, 4-{2-[1-(3-Chloro-4-hydroxy-5-methoxy-phenyl)-meth-(Z)-ylidene]-3-oxo-2,3-dihydro-imidazo[2,1-b]thiazol-6-yl}-benzamide]
0.012 µM | 0.226 µM | COc1cc(/C=c2\sc3nc(-c4ccc5c(c4)CC(=O)N5)cn3c2=O)cc(Cl)c1O [Example 102, 5-{2-[1-(3-Chloro-4-hydroxy-5-methoxy-phenyl)-meth-(Z)-ylidene]-3-oxo-2,3-dihydro-imidazo[2,1-b]thiazol-6-yl}-1,3-dihydro-indol-2-one]
0.024 µM | 1.16 µM | COc1cc(/C=c2\sc3nc(-c4ccc(NC(C)=O)cc4)cn3c2=O)cc(Cl)c1O [Example 103, N-(4-{2-[1-(3-Chloro-4-hydroxy-5-methoxy-phenyl)-meth-(Z)-ylidene]-3-oxo-2,3-dihydro-imidazo[2,1-b]thiazol-6-yl}-phenyl)-acetamide]
0.019 µM | > 10 µM | COc1cc(/C=c2\sc3nc(-c4cccc(C(=O)O)c4)cn3c2=O)cc(Cl)c1O [Example 104, 3-{2-[1-(3-Chloro-4-hydroxy-5-methoxy-phenyl)-meth-(Z)-ylidene]-3-oxo-2,3-dihydro-imidazo[2,1-b]thiazol-6-yl}-benzoic acid]
0.013 µM | 5.55 µM | COc1cc(/C=c2\sc3nc(-c4c(F)cccc4F)cn3c2=O)cc(Cl)c1O [Example 105, 2-[1-(3-Chloro-4-hydroxy-5-methoxy-phenyl)-meth-(Z)-ylidene]-6-(2,6-difluoro-phenyl)-imidazo[2,1-b]thiazol-3-one]
0.008 µM | 1.08 µM | COc1cc(/C=c2\sc3nc(-c4cccc(C(=O)NCCF)c4)cn3c2=O)cc(Cl)c1O [Example 106, 3-{2-[1-(3-Chloro-4-hydroxy-5-methoxy-phenyl)-meth-(Z)-ylidene]-3-oxo-2,3-dihydro-imidazo[2,1-b]thiazol-6-yl}-N-(2-fluoro-ethyl)-benzamide]
0.003 µM | 2.63 µM | CCCNC(=O)c1cccc(-c2cn3c(=O)/c(=C/c4cc(Cl)c(O)c(OC)c4)sc3n2)c1 [Example 107, 3-{2-[1-(3-Chloro-4-hydroxy-5-methoxy-phenyl)-meth-(Z)-ylidene]-3-oxo-2,3-dihydro-imidazo[2,1-b]thiazol-6-yl}-N-propyl-benzamide]
0.004 µM | 0.395 µM | CNC(=O)c1cccc(-c2cn3c(=O)/c(=C/c4cc(Cl)c(O)c(OC)c4)sc3n2)c1 [Example 108, 3-{2-[1-(3-Chloro-4-hydroxy-5-methoxy-phenyl)-meth-(Z)-ylidene]-3-oxo-2,3-dihydro-imidazo[2,1-b]thiazol-6-yl}-N-methyl-benzamide]
0.033 µM | 4.92 µM | CCCOc1cc(/C=c2\sc3nc(-c4cnccc4C)cn3c2=O)cc(Cl)c1O [Example 109, 2-[1-(3-Chloro-4-hydroxy-5-propoxy-phenyl)-meth-(Z)-ylidene]-6-(4-methyl-pyridin-3-yl)-imidazo[2,1-b]thiazol-3-one]
0.017 µM | 0.425 µM | CCCOc1cc(/C=c2\sc3nc(-c4cccnc4)cn3c2=O)cc(Cl)c1O [Example 110, 2-[1-(3-Chloro-4-hydroxy-5-propoxy-phenyl)-meth-(Z)-ylidene]-6-pyridin-3-yl-imidazo[2,1-b]thiazol-3-one]
0.017 µM | 1.45 µM | CCCOc1cc(/C=c2\sc3nc(-c4ccncc4)cn3c2=O)cc(Cl)c1O [Example 111, 2-[1-(3-Chloro-4-hydroxy-5-propoxy-phenyl)-meth-(Z)-ylidene]-6-pyridin-4-yl-imidazo[2,1-b]thiazol-3-one]
0.008 µM | 0.493 µM | CCCOc1cc(/C=c2\sc3nc(-c4ccc(-n5cnc(C)c5)nc4)cn3c2=O)cc(Cl)c1O [Example 112, 2-[1-(3-Chloro-4-hydroxy-5-propoxy-phenyl)-meth-(Z)-ylidene]-6-[6-(4-methyl-imidazol-1-yl)-pyridin-3-yl]-imidazo[2,1-b]thiazol-3-one]
0.016 µM | 1.16 µM | C=CCNC(=O)c1cccc(-c2cn3c(=O)/c(=C/c4cc(Cl)c(O)c(OC)c4)sc3n2)c1 [Example 113, N-Allyl-3-{2-[1-(3-chloro-4-hydroxy-5-methoxy-phenyl)-meth-(Z)-ylidene]-3-oxo-2,3-dihydro-imidazo[2,1-b]thiazol-6-yl}-benzamide]
0.006 µM | 0.352 µM | CNC(=O)c1ccc(-c2cn3c(=O)/c(=C/c4cc(Cl)c(O)c(OC)c4)sc3n2)cc1 [Example 114, 4-{2-[1-(3-Chloro-4-hydroxy-5-methoxy-phenyl)-meth-(Z)-ylidene]-3-oxo-2,3-dihydro-imidazo[2,1-b]thiazol-6-yl}-N-methyl-benzamide]
